Data from US12173018B2, “Penicillin-binding protein inhibitors” (priority 2018, dated 2024).
≈ marks a conversion by molar mass, not a printed value. Where a name gives a salt, the structure may show the parent alone. Read-outs that look alike come from different tables or passages of the source.

Experiments:
[1] = test system: engineered strain of Escherichia coli harboring CTX-M15; assay: microbe, parasite or virus in culture; type: cell-based; conditions: Escherichia coli, read-out: Microbiological Activity (MIC in mg/L), E. coli DH5α/pLBII-CTX-M15, engineered strain producing CTX-M15
[2] = test system: E. coli DH5α empty pLBII vector control strain; assay: microbe, parasite or virus in culture; type: cell-based, Escherichia coli; conditions: Escherichia coli, read-out: Microbiological Activity (MIC in mg/L), E. coli DH5α/pLBII
Experimental: (§1) Briefly, cryo-preserved bacterial cultures of challenge strains are streaked for isolation on appropriate agar medium, in this case Mueller Hinton II agar. Following incubation to allow growth of the colonies, plates are sealed with parafilm and stored refrigerated for up to two weeks. For preparation of assay inoculum and to ensure low variability, at least 5 colonies are picked from the agar plates with an inoculating loop and aseptically transferred to a culture tube containing 3 mL of Mueller-Hinton Broth (supplemented with divalent cations to required levels based on Manufacturers' certification). The broth culture is grown for 3-5 hours at 37° C. with shaking at 200 rpm. Meanwhile, 2-fold serial dilutions of test compounds are conducted in a 96 well plate with a final volume of 75 μL per well at 2-fold the final desired concentration. After the dilution plates are set up the growing cultures are then diluted in a cuvette containing MH II broth and the optical density is measured at 600 nm. The Inoculum is diluted such that 75 μL of this culture in Mueller-Hinton Broth results in a starting bacterial concentration of 5×10^5 CFU/mL when added to the dilution plates. The plates are incubated for 16-20 hours at 37° C. The MIC values are read visually as the lowest concentration well with no bacterial growth.
To determine if test compounds were affected by CTX-M15, the most abundant extended spectrum […] in clinical settings worldwide, the inhibition of the growth of an engineered strain of Escherichia coli harboring CTX-M15 was tested. This strain was constructed by cloning the gene encoding CTX-M15 into the NdeI and BamHI restriction endonuclease sites of plasmid pLBII, placing the gene(s) under the control of the Lac promoter. The constructed expression plasmid for CTX-M15 was used to transform competent E. coli DH5α cells to make the engineered strain, including an empty pLBII vector control strain. The classic cell based broth microdilution MIC assay was employed as described above with the addition of control antibiotics, known to be degraded by β-lactamases (Ceftazidime, piperacillin and piperacillin+tazobactam).

N. gonorrhoeae FA1090 = assay: Liquid broth MIC, N. gonorrhoeae FA1090; type: cell-based; conditions: Neisseria gonorrhoeae; N. gonorrhoeae FA1090, liquid broth; read-out: Minimum Inhibitory Concentration, N. gonorrhoeae FA1090
In short: (§2)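 Growth inhibition was scored by eye as the lowest compound concentration free of bacterial growth. Cultures from Kellogg's-supplemented GC agar, diluted to 5×10^5 CFU/mL, were exposed to serially diluted compound for 40-42 h at 36° C under 5% CO2.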

P. aeruginosa PAO1 = assay: Broth microdilution MIC, P. aeruginosa PAO1; type: cell-based; conditions: Pseudomonas aeruginosa
Experimental: (§3) To determine the ability of test compounds to potentiate the inhibition of the growth of bacterial strains, classic cell based broth microdilution minimum inhibitory concentration (MIC) assays were employed. MIC assays are performed according to CLSI methods except where otherwise noted (CLSI, 2011 and CLSI, 2009). The reference type strain E. coli ATCC 25922, the wild-type parent strain E. coli AG100, the hyper-permeable E. coli 901C and E. coli D22 and the E. coli AG100A strain lacking the acrAB efflux pump encoding genes were used to determine the ability of the PBP inhibitors to penetrate the outer membrane of gram-negative bacteria and inhibit bacterial growth. […] The P. aeruginosa PAO1, P. aeruginosa ATCC 27853 and A. baumannii ATCC 19606, along with the hyper-permeable P. aeruginosa ATCC 35151 and an engineered efflux pump-compromised strain of P. aeruginosa (ΔmexAB-oprM) were used to determine the ability of PBP inhibitors to penetrate the outer membrane of P. aeruginosa and A. baumannii and assess antibacterial activity against these important gram-negative organisms.
as §1

E. coli AG100 = assay: Broth microdilution MIC, E. coli AG100 (wild-type parent); type: cell-based; conditions: Escherichia coli; wild-type parent E. coli AG100, broth microdilution; read-out: MIC E. coli AG100
In short: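 Starting inoculum of 5×10^5 CFU/mL, from colonies grown 3-5 h in Mueller-Hinton broth with divalent cations, added to two-fold compound dilution series.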

N. gonorrhoeae FA19 = assay: Liquid broth MIC, N. gonorrhoeae FA19; type: cell-based; conditions: Neisseria gonorrhoeae; N. gonorrhoeae FA19, liquid broth; read-out: Minimum Inhibitory Concentration, N. gonorrhoeae FA19
In short: as §2

[3] = test system: N. gonorrhoeae ATCC 49226; assay: Liquid broth MIC, N. gonorrhoeae ATCC 49226; type: cell-based; conditions: Neisseria gonorrhoeae, ATCC49226; N. gonorrhoeae ATCC 49226, liquid broth; read-out: Minimum Inhibitory Concentration, N. gonorrhoeae ATCC 49226
In short: as §2

E. coli 901C = assay: microbe, parasite or virus in culture; type: cell-based; conditions: Escherichia coli; hyper-permeable E. coli 901C, broth microdilution; read-out: MIC E. coli 901C
In short: (§4)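 Strains are tested by standard CLSI broth microdilution. Log-phase cells, diluted by OD600 to 5×10^5 CFU/mL, meet 2-fold compound series and incubate 16-20 hours at 37° C before the lowest growth-free concentration is recorded.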

P. aeruginosa ATCC 35151 = assay: microbe, parasite or virus in culture; type: cell-based; conditions: Pseudomonas aeruginosa, ATCC35151; hyper-permeable P. aeruginosa ATCC 35151; read-out: MIC P. aeruginosa ATCC 35151
In short: as §4

E. coli D22 = assay: microbe, parasite or virus in culture; type: cell-based; conditions: Escherichia coli; hyper-permeable E. coli D22, broth microdilution; read-out: MIC E. coli D22
In short: as §4

K. pneumoniae UMM = assay: microbe, parasite or virus in culture; type: cell-based; conditions: Klebsiella pneumoniae; K. pneumoniae UMM producing SHV-5 and KPC-2; read-out: MIC K. pneumoniae UMM
In short: as §4

K. pneumoniae SI-117 = assay: microbe, parasite or virus in culture; type: cell-based; conditions: Klebsiella pneumoniae, SI117, read-out: MIC K. pneumoniae SI-117
In short: as §4

E. coli AG100A = assay: microbe, parasite or virus in culture; type: cell-based; conditions: Escherichia coli, read-out: MIC E. coli AG100A
In short: as §4

[4] = test system: P. aeruginosa (ΔmexAB-oprM); assay: microbe, parasite or virus in culture; type: cell-based; conditions: Pseudomonas aeruginosa, read-out: MIC P. aeruginosa ΔmexAB-OprM
In short: as §4

N. gonorrhoeae WHO F = assay: Liquid broth MIC, N. gonorrhoeae WHO F; type: cell-based; conditions: Neisseria gonorrhoeae; N. gonorrhoeae WHO F, liquid broth; read-out: Minimum Inhibitory Concentration, N. gonorrhoeae WHO F
In short: as §2

A. baumannii ATCC 19606 = assay: Broth microdilution MIC, A. baumannii ATCC 19606; type: cell-based; conditions: Acinetobacter baumannii
Experimental: as §3, §1

K. pneumoniae 848844 = assay: microbe, parasite or virus in culture; type: cell-based, Klebsiella pneumoniae; conditions: Klebsiella pneumoniae; K. pneumoniae 848844 producing SHV-11 and KPC-2; read-out: MIC K. pneumoniae 848844
In short: as §4

E. coli ATCC 25922 = assay: Broth microdilution MIC, E. coli ATCC 25922; type: cell-based; conditions: Escherichia coli
In short: as §4

E. coli PBP3 = E. coli PBP3 (Escherichia coli (strain K12), UniProt P0AD68); assay: E. coli PBP3 Bocillin-FL fluorescence polarization competition binding assay
Sequence of E. coli PBP3 (P0AD68 whole entry): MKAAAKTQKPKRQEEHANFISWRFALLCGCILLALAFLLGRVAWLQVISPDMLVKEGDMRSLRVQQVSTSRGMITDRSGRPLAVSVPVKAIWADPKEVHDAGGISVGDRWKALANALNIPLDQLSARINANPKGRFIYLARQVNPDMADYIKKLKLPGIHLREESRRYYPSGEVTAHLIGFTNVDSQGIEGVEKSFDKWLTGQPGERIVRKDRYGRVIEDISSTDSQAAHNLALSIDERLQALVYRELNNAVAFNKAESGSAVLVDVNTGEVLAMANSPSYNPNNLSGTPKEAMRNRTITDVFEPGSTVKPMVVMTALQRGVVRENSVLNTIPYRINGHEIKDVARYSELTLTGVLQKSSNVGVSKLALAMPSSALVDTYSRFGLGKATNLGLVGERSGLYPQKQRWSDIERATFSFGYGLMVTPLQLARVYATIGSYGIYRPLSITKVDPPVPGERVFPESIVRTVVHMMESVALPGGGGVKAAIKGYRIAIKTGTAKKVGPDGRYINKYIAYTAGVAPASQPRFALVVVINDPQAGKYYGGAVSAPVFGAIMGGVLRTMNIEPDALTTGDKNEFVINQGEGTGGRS
In short: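 Competition against 0.1 μM Bocillin-FL for binding to 1.5 μM purified protein, read by fluorescence polarization for 60 min. Compounds tested from 0 to 1000 μM; EC50 taken as the concentration reducing probe binding.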

[5] = PAO1, read-out: MIC P. aeruginosa PAO1
[6] = ATCC19606, read-out: MIC A. baumannii ATCC 19606
[7] = ATCC25922, read-out: MIC E. coli 25922
[8] = P. aeruginosa PAO1, broth microdilution, read-out: MIC P. aeruginosa PAO1
[9] = ATCC19606, A. baumannii ATCC 19606, broth microdilution, read-out: MIC A. baumannii ATCC 19606
[10] = ATCC25922, E. coli ATCC 25922, broth microdilution, read-out: MIC E. coli 25922

SMILES | MIC [1] [mg/L] | MIC [2] [mg/L] | MIC (N. gonorrhoeae FA1090) [µg/mL] | MIC (E. coli AG100) [µg/mL] | MIC (N. gonorrhoeae FA19) [µg/mL] | MIC [3] [µg/mL] | MIC (E. coli 901C) [µg/mL] | MIC (P. aeruginosa ATCC 35151) [µg/mL] | MIC (E. coli D22) [µg/mL] | MIC (K. pneumoniae UMM) [µg/mL] | MIC (K. pneumoniae SI-117) [µg/mL] | MIC (E. coli AG100A) [µg/mL] | MIC [4] [µg/mL] | MIC (N. gonorrhoeae WHO F) [µg/mL] | MIC (K. pneumoniae 848844) [µg/mL] | further results
CCN1CCN(C(=O)NC(C)(CCO)C(=O)N[C@H]2Cc3cccc(C(=O)O)c3OB2O)C(=O)C1=O (stereo partly drawn) [Example 12, (3R)-3-(2-(4-ethyl-2,3-dioxopiperazine-1-carboxamido)-4-hydroxy-2-methylbutanamido)-2-hydroxy-3,4-dihydro-2H-benzo[e][1,2]oxaborinine-8-carboxylic acid] | > 512 | > 512 | – | – | – | – | – | – | – | – | – | – | – | – | – | –
CCN1CCN(C(=O)N2CC(CN)(C(=O)N[C@H]3Cc4cccc(C(=O)O)c4OB3O)C2)C(=O)C1=O [Example 14, (R)-3-(3-(aminomethyl)-1-(4-ethyl-2,3-dioxopiperazine-1-carbonyl)azetidine-3-carboxamido)-2-hydroxy-3,4-dihydro-2H-benzo[e][1,2]oxaborinine-8-carboxylic acid, trifluoroacetic acid salt] | > 512 | > 512 | – | – | – | – | – | – | – | – | – | – | – | – | – | –
CCN1CCN(C(=O)NCC2(C(=O)N[C@H]3Cc4cccc(C(=O)O)c4OB3O)CNC2)C(=O)C1=O [Example 53, (R)-3-(3-((4-ethyl-2,3-dioxopiperazine-1-carboxamido)methyl)azetidine-3-carboxamido)-2-hydroxy-3,4-dihydro-2H-benzo[e][1,2]oxaborinine-8-carboxylic acid, trifluoroacetic acid salt] | – | > 512 | – | – | – | – | – | – | – | – | – | – | – | – | – | –
CS(=O)(=O)N1CCN(C(=O)NC(C(=O)N[C@H]2Cc3cccc(C(=O)O)c3OB2O)c2ccc(O)c(O)c2Cl)C1=O (stereo partly drawn) [Example 58, (3R)-3-(2-(2-chloro-3,4-dihydroxyphenyl)-2-(3-(methylsulfonyl)-2-oxoimidazolidine-1-carboxamido)acetamido)-2-hydroxy-3,4-dihydro-2H-benzo[e][1,2]oxaborinine-8-carboxylic acid] | 32 to 64 (≈ 53.6 to 107 µM) | – | 4 to 8 (≈ 6.7 to 13.4 µM) | 32 to 64 | 4 to 8 (≈ 6.7 to 13.4 µM) | 4 to 8 (≈ 6.7 to 13.4 µM) | 2 to 4 | < 0.25 | 8 to 16 | 8 to 16 | > 128 | 8 to 16 | < 0.25 | 1 to 2 (≈ 1.68 to 3.35 µM) | 8 to 16 | MIC (P. aeruginosa PAO1; [5]): 8 to 16 µg/mL; MIC (A. baumannii ATCC 19606; [6]): 2 to 4 µg/mL; MIC (E. coli ATCC 25922; [7]): 32 to 64 µg/mL
NS(=O)(=O)c1ccc([C@@H](NC(=O)N2CCN(CCF)C(=O)C2=O)C(=O)N[C@H]2Cc3cccc(C(=O)O)c3OB2O)cc1O [Example 170, (R)-3-((R)-2-(4-(2-fluoroethyl)-2,3-dioxopiperazine-1-carboxamido)-2-(3-hydroxy-4-sulfamoylphenyl)acetamido)-2-hydroxy-3,4-dihydro-2H-benzo[e][1,2]oxaborinine-8-carboxylic acid] | – | – | 0.25 to 0.5 (≈ 0.402 to 0.805 µM) | 8 to 16 | 4 to 8 (≈ 6.44 to 12.9 µM) | 4 to 8 (≈ 6.44 to 12.9 µM) | < 0.25 | < 0.25 | 0.5 to 1 | 8 to 16 | 32 to 64 | 2 to 4 | 8 to 16 | < 0.125 | 32 to 64 | MIC (P. aeruginosa PAO1; [5]): > 128 µg/mL; MIC (A. baumannii ATCC 19606; [6]): > 128 µg/mL; MIC (E. coli ATCC 25922; [7]): 8 to 16 µg/mL
NCCN1CCN(C(=O)N[C@@H](C(=O)N[C@H]2Cc3cccc(C(=O)O)c3OB2O)c2ccc(O)c(O)c2Cl)C(=O)C1=O [Example 220, (R)-3-((R)-2-(4-(2-aminoethyl)-2,3-dioxopiperazine-1-carboxamido)-2-(2-chloro-3,4-dihydroxyphenyl)acetamido)-2-hydroxy-3,4-dihydro-2H-benzo[e][1,2]oxaborinine-8-carboxylic acid] | – | – | 4 to 8 (≈ 6.78 to 13.6 µM) | 0.5 to 1 | > 64 | 16 to 32 (≈ 27.1 to 54.3 µM) | 0.5 to 1 | < 0.25 | 0.5 to 1 | 0.5 to 1 | 2 to 4 | 0.5 to 1 | < 0.25 | 1 to 2 (≈ 1.7 to 3.39 µM) | 0.5 to 1 | MIC (P. aeruginosa PAO1; [8]): 0.5 to 1 µg/mL; MIC (A. baumannii ATCC 19606; [9]): < 0.25 µg/mL; MIC (E. coli ATCC 25922; [10]): 8 to 16 µg/mL
O=C(O)c1cccc2c1OB(O)[C@@H](NC(=O)C(NC(=O)N1C[C@H]3CCCN3C(=O)C1=O)c1ccc(O)c(O)c1Cl)C2 (stereo partly drawn) [Example 232, (3R)-3-(2-(2-chloro-3,4-dihydroxyphenyl)-2-((R)-3,4-dioxooctahydropyrrolo[1,2-a]pyrazine-2-carboxamido)acetamido)-2-hydroxy-3,4-dihydro-2H-benzo[e][1,2]oxaborinine-8-carboxylic acid] | – | – | – | 8 to 16 | – | – | 8 to 16 | < 0.25 | 8 to 16 | 32 to 64 | 32 to 64 | 8 to 16 | < 0.25 | – | 8 to 16 | MIC (P. aeruginosa PAO1; [8]): 32 to 64 µg/mL; MIC (A. baumannii ATCC 19606; [9]): > 128 µg/mL; EC50 (E. coli PBP3): 30 to 500 µM; MIC (E. coli ATCC 25922; [10]): > 128 µg/mL
